In US20030130216A1, “Use of inhibitors of caspase-3 or caspase-activated desoxyribonuclease(cad) for treating cardiac disease” (priority 2000, published 2003):

Test system: healthy adult ventricular cardiac muscle cells
Assay: Microinjection of activated caspase-3 into isolated ventricular cardiac muscle cells
Assay type: cell-based, rabbit
Conditions: pre-incubation of the muscle cells with inhibitor (100 μmol/l)
Experimental: The microinjection experiments were carried out on freshly isolated cardiac muscle cells of sham-operated rabbits by means of a “Femto-Jet” microinjection device (Eppendorf, Hamburg, Germany). FITC-conjugated dextran (6 mg/ml), alone or in combination with human recombinant active caspase-3 (4 ng/μl and 20 ng/μl) in 5 mmol/l potassium phosphate buffer (pH value 7.4; 100 mmol/l KCl) was injected into the cytoplasm of the cells in culture medium (Pi=1000 hPa, ti=0.1 sec., Pc=30 hPa) which had been supplemented with 200 μmol/l BDM (butanedione-monoxime, Sigma, Taufkirchen, Germany), 10 μmol/l verapamil and, optionally, 100 μmol/l […]. After incubation for two hours, contraction measurements or phalloidin staining were carried out. Injected cells were selected by means of FITC fluorescence.
In order to be able to study whether the activation of caspase-3 is sufficient for the induction of the worsening of sarcomere organisation, the activated enzyme was injected into the cytoplasm of healthy adult ventricular cardiac muscle cells. Positive cells (approximately 10 to 20%) were identified by means of FITC fluorescence. The morphological features of the cardiac muscle cells after microinjection of activated caspase-3 (4 ng/μl and 20 ng/μl) in comparison with control-injected cells are shown in FIGS. 9(a+b). […]

DEVD-fmk was tested, and the “caspase-3-mediated lowering of contraction” value was “blocked”.
